According to patent US20250270213A1, “PI3Ka INHIBITORS” (Synnovation Therapeutics, Inc., priority 2022, published 2025):

test system: T47D (PIK3CA H1047R) cells; test: pS473 AKT assay with 2.5% FBS, T47D cells; type: cell-based; conditions: Homo sapiens, pSer473 AKT, DMEM with 2.5% FBS, 2 h treatment, read-out: T47D_IC50
How it was run: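 In-cell chemiluminescent ELISA of AKT Ser473 phosphorylation, using anti-pSer473 primary and HRP secondary antibodies on fixed cells. T47D (PIK3CA H1047R) cells had 2 h of compound treatment in DMEM containing 2.5% FBS; IC50 derived from dose-response.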

Compound | IC50 [µM]
Cc1cc(C(C)Nc2ccc(Cl)nc2N2CCC(O)CC2)c2c(c1)c(=O)n1c3c2cnn3CCC1 (centres unmarked) [Compound 291, 10-(1-((6-chloro-2-(4-hydroxypiperidin-1-yl)pyridin-3-yl)amino)ethyl)-8-methyl-4,5-dihydro-3H,6H-2,2a,5a-triazaaceanthrylen-6-one] | < 1
CNC(=O)C1CCN(c2nc(Cl)ccc2NC(C)c2cc(C)cc3c(=O)n4c5c(cnn5CCC4)c23)CC1 (centres unmarked) [Compound 292, 1-(6-chloro-3-((1-(8-methyl-6-oxo-4,5-dihydro-3H,6H-2,2a,5a-triazaaceanthrylen-10-yl)ethyl)amino)pyridin-2-yl)-N-methylpiperidine-4-carboxamide] | < 1
CC(=O)N1CCN(c2nc(Cl)ccc2NC(C)c2cc(C)cc3c(=O)n4c5c(cnn5CCC4)c23)CC1 (centres unmarked) [Compound 293, 10-(1-((2-(4-acetylpiprerazin-1-yl)-6-chloropyridin-3-yl)amino)ethyl)-8-methyl-4,5-dihydro-3H,6H-2,2a,5a-triazaaceanthrylen-6-one] | < 1
Cc1cc(C(C)Nc2ccc(Cl)nc2-c2nnco2)c2c(c1)c(=O)n1c3c2cnn3CCC1 (centres unmarked) [Compound 294, 10-(1-((6-chloro-2-(1,3,4-oxadiazol-2-yl)pyridin-3-yl)amino)ethyl)-8-methyl-4,5-dihydro-3H,6H-2,2a,5a-triazaaceanthrylen-6-one] | < 1
Cc1cc(C(C)Nc2ccc(Cl)nc2-c2ncn(CCO)n2)c2c(c1)c(=O)n1c3c2cnn3CCC1 (centres unmarked) [Compound 297, 10-(1-((6-chloro-2-(1-(2-hydroxyethyl)-1H-1,2,4-triazol-3-yl)pyridin-3-yl)amino)ethyl)-8-methyl-4,5-dihydro-3H,6H-2,2a,5a-triazaaceanthrylen-6-one] | < 1
Cc1cc(C(C)Nc2ccc(Cl)nc2-c2nnn(C)n2)c2c(c1)c(=O)n1c3c2cnn3CCC1 (centres unmarked) [Compound 298, 10-(1-((6-chloro-2-(2-methyl-2H-tetrazol-5-yl)pyridin-3-yl)amino)ethyl)-8-methyl-4,5-dihydro-3H,6H-2,2a,5a-triazaaceanthrylen-6-one] | < 1
Cc1cc(C(C)Nc2ccc(Cl)nc2-c2cnn(C3CCOCC3)c2)c2c(c1)c(=O)n1c3c2cnn3CCC1 (centres unmarked) [Compound 299, 10-(1-((6-chloro-2-(1-(tetrahydro-2H-pyran-4-yl)-1H-pyrazol-4-yl)pyridin-3-yl)amino)ethyl)-8-methyl-4,5-dihydro-3H,6H-2,2a,5a-triazaaceanthrylen-6-one] | < 1
Cc1cc(C(C)Nc2ccc(Cl)nc2-c2cnn(CCO)c2)c2c(c1)c(=O)n1c3c2cnn3CCC1 (centres unmarked) [Compound 300, 10-(1-((6-chloro-2-(1-(2-hydroxyethyl)-1H-pyrazol-4-yl)pyridin-3-yl)amino)ethyl)-8-methyl-4,5-dihydro-3H,6H-2,2a,5a-triazaaceanthrylen-6-one] | < 1
Cc1cc(C(C)Nc2ccc(Cl)nc2-c2cnn(C3CCN(C)CC3)c2)c2c(c1)c(=O)n1c3c2cnn3CCC1 (centres unmarked) [Compound 301] | < 1
Cc1cc(C(C)Nc2ccc(Cl)nc2-c2cnn(C3CCN(C)C3)c2)c2c(c1)c(=O)n1c3c2cnn3CCC1 (centres unmarked) [Compound 303, 10-(1-((6-chloro-2-(1-(1-methylpyrrolidin-3-yl)-1H-pyrazol-4-yl)pyridin-3-yl)amino)ethyl)-8-methyl-4,5-dihydro-3H,6H-2,2a,5a-triazaaceanthrylen-6-one] | < 1
Cc1cc(C(C)Nc2ccc(Cl)nc2-c2cnn(C3CN(C)C3)c2)c2c(c1)c(=O)n1c3c2cnn3CCC1 (centres unmarked) [Compound 304, 10-(1-((6-chloro-2-(1-(1-methylazetidin-3-yl)-1H-pyrazol-4-yl)pyridin-3-yl)amino)ethyl)-8-methyl-4,5-dihydro-3H,6H-2,2a,5a-triazaaceanthrylen-6-one] | < 1
Cc1cc(C(C)Nc2ccc(Cl)nc2-c2cnn(C3CCN(C(=O)N(C)C)CC3)c2)c2c(c1)c(=O)n1c3c2cnn3CCC1 (centres unmarked) [Compound 305, 4-(4-(6-chloro-3-((1-(8-methyl-6-oxo-4,5-dihydro-3H,6H-2,2a,5a-triazaaceanthrylen-10-yl)ethyl)amino)pyridin-2-yl)-1H-pyrazol-1-yl)-N,N-dimethylpiperidine-1-carboxamide] | < 1
Cc1cc(C(C)Nc2ccc(Cl)nc2-c2ccnc(C)c2)c2c(c1)c(=O)n1c3c2cnn3CCC1 (centres unmarked) [Compound 306, 10-(1-((6-chloro-2′-methyl-[2,4′-bipyridin]-3-yl)amino)ethyl)-8-methyl-4,5-dihydro-3H,6H-2,2a,5a-triazaaceanthrylen-6-one] | < 1
Cc1cc(C(C)Nc2ccc(Cl)nc2-c2cccnc2)c2c(c1)c(=O)n1c3c2cnn3CCC1 (centres unmarked) [Compound 307, 10-(1-((6-chloro-[2,3′-bipyridin]-3-yl)amino)ethyl)-8-methyl-4,5-dihydro-3H,6H-2,2a,5a-triazaaceanthrylen-6-one] | < 1
Cc1cc(C(C)Nc2ccc(Cl)nc2-c2ccc(=O)n(C)c2)c2c(c1)c(=O)n1c3c2cnn3CCC1 (centres unmarked) [Compound 308, 10-(1-((6-chloro-1′-methyl-6′-oxo-1′,6′-dihydro-[2,3′-pyridin]-3-yl)amino)ethyl)-8-methyl-4,5-dihydro-3H,6H-2,2a,5a-triazaaceanthrylen-6-one] | < 1
CNC(=O)c1ccc(-c2nc(Cl)ccc2NC(C)c2cc(C)cc3c(=O)n4c5c(cnn5CCC4)c23)cc1F (centres unmarked) [Compound 309, 4-(6-chloro-3-((1-(8-methyl-6-oxo-4,5-dihydro-3H,6H-2,2a,5a-triazaaceanthrylen-10-yl)ethyl)amino)pyridin-2-yl)-2-fluoro-N-methylbenzamide] | < 1
COc1cc(-c2nc(Cl)ccc2NC(C)c2cc(C)cc3c(=O)n4c5c(cnn5CCC4)c23)ccn1 (centres unmarked) [Compound 312, 10-(1-((6-chloro-2′-methoxy-[2,4′-bipyridin]-3-yl)amino)ethyl)-8-methyl-4,5-dihydro-3H,6H-2,2a,5a-triazaaceanthrylen-6-one] | < 1
Cc1cc(C(C)Nc2ccc(Cl)nc2-c2ccnc(N(C)C)c2)c2c(c1)c(=O)n1c3c2cnn3CCC1 (centres unmarked) [Compound 313, 10-(1-((6-chloro-2′-(dimethylamino)-[2,4′-bipyridin]-3-yl)amino)ethyl)-8-methyl-4,5-dihydro-3H,6H-2,2a,5a-triazaaceanthrylen-6-one] | < 1
Cc1cc(C(C)Nc2ccc(Cl)nc2-c2ccc3ncccc3c2)c2c(c1)c(=O)n1c3c2cnn3CCC1 (centres unmarked) [Compound 315, 10-(1-((6-chloro-2-(quinolin-6-yl)pyridin-3-yl)amino)ethyl)-8-methyl-4,5-dihydro-3H,6H-2,2a,5a-triazaaceanthrylen-6-one] | < 1
Cc1cc(C(C)Nc2ccc(Cl)nc2-c2ccc3c(cnn3C)c2)c2c(c1)c(=O)n1c3c2cnn3CCC1 (centres unmarked) [Compound 316, 10-(1-((6-chloro-2-(1-methyl-1H-indazol-5-yl)pyridin-3-yl)amino)ethyl)-8-methyl-4,5-dihydro-3H,6H-2,2a,5a-triazaaceanthrylen-6-one] | < 1

Second part, the molecule after the results:

IC50 [µM] | Compound
< 1 | Cc1cc(C(C)Nc2ccc(Cl)nc2-c2ncn(C)n2)c2c(c1)c(=O)n1c3c2cnn3CCC1 (centres unmarked) [Compound 296, 10-(1-((6-chloro-2-(1-methyl-1H-1,2,4-triazol-3-yl)pyridin-3-yl)amino)ethyl)-8-methyl-4,5-dihydro-3H,6H-2,2a,5a-triazaaceanthrylen-6-one]
< 1 | Cc1cc(C(C)Nc2ccc(Cl)nc2-c2cnn(C3CCCN(C)C3)c2)c2c(c1)c(=O)n1c3c2cnn3CCC1 (centres unmarked) [Compound 302]
< 1 | CNC(=O)c1ccc(-c2nc(Cl)ccc2NC(C)c2cc(C)cc3c(=O)n4c5c(cnn5CCC4)c23)cn1 (centres unmarked) [Compound 310, 6-chloro-N-methyl-3-((1-(8-methyl-6-oxo-4,5-dihydro-3H,6H-2,2a,5a-triazaaceanthrylen-10-yl)ethyl)amino)-[2,3′-bipyridine]-6′-carboxamide]
< 1 | COc1ccc(-c2nc(Cl)ccc2NC(C)c2cc(C)cc3c(=O)n4c5c(cnn5CCC4)c23)cn1 (centres unmarked) [Compound 311, 10-(1-((6-chloro-6′-methoxy-[2,3′-bipyridin]-3-yl)amino)ethyl)-8-methyl-4,5-dihydro-3H,6H-2,2a,5a-triazaaceanthrylen-6-one]
< 1 | Cc1cc(C(C)Nc2ccc(Cl)nc2-c2ccc3c(c2)CN(C)C3=O)c2c(c1)c(=O)n1c3c2cnn3CCC1 (centres unmarked) [Compound 314, 10-(1-((6-chloro-2-(2-methyl-1-oxoisoindolin-5-yl)pyridin-3-yl)amino)ethyl)-8-methyl-4,5-dihydro-3H,6H-2,2a,5a-triazaaceanthrylen-6-one]
< 1 | CNC(=O)c1ccc(-c2nc(C)ccc2NC(C)c2cc(C)cc3c(=O)n4c5c(cnn5CCC4)c23)cc1F (centres unmarked) [Compound 317, 2-fluoro-N-methyl-4-(6-methyl-3-((1-(8-methyl-6-oxo-4,5-dihydro-3H,6H-2,2a,5a-triazaaceanthrylen-10-yl)ethyl)amino)pyridin-2-yl)benzamide]
< 1 | Cc1cc(C(C)Nc2ccc(C)nc2-c2cnn(C3CCOCC3)c2)c2c(c1)c(=O)n1c3c2cnn3CCC1 (centres unmarked) [Compound 318, 8-methyl-10-(1-((6-methyl-2-(1-(tetrahydro-2H-pyran-4-yl)-1H-pyrazol-4-yl)pyridin-3-yl)amino)ethyl)-4,5-dihydro-3H,6H-2,2a,5a-triazaaceanthrylen-6-one]
< 1 | Cc1cc(C(C)Nc2ccc(C)nc2-c2cnn(CCO)c2)c2c(c1)c(=O)n1c3c2cnn3CCC1 (centres unmarked) [Compound 319, 10-(1-((2-(1-(2-hydroxyethyl)-1H-pyrazol-4-yl)-6-methylpyridin-3-yl)amino)ethyl)-8-methyl-4,5-dihydro-3H,6H-2,2a,5a-triazaaceanthrylen-6-one]
< 1 | Cc1cc(C(C)Nc2ccc(C)nc2-c2ccnc(C)c2)c2c(c1)c(=O)n1c3c2cnn3CCC1 (centres unmarked) [Compound 320, 10-(1-((2′,6-dimethyl-[2,4′-bipyridin]-3-yl)amino)ethyl)-8-methyl-4,5-dihydro-3H,6H-2,2a,5a-triazaaceanthrylen-6-one]
